Experimental data reported in patent publication US5430148A, “Antiproliferative quinazolines” (Agouron Pharmaceuticals, Inc., priority 1992, dated 1995).
Like-named read-outs stand apart in the source and are kept apart here.

Columns and labels:
[1] = tested on: ovarian, liver and breast cancer; details: literature; cited from earlier work
[2] = literature; cited from earlier work
[3] = molecular target: E. coli TS (thymidylate synthase) (Escherichia coli, UniProt P0A884); assay: Inhibition constants against 5,10-methylenetetrahydrofolate for thymidylate synthase, E. coli enzyme (tritium release); type: biochemical
Sequence of E. coli TS (thymidylate synthase) (P0A884 whole entry): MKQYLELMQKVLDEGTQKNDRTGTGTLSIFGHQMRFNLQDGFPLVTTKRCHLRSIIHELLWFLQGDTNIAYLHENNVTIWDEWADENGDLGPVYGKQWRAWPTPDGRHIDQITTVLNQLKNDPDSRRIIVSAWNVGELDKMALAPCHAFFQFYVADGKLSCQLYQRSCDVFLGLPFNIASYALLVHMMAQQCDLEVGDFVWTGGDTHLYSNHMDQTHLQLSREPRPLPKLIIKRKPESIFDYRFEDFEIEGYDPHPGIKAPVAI
Procedure: (§1) Determination of Inhibition Constants Against 5,10-Methylenetetrahydrofolate for the Enzyme Thymidylate Synthase
(§2) Inhibition constants, Ki, slope and Ki, intercept [W. W. Cleland, Biochim. Biophys. […] The cofactor was present as the variable substrate under conditions of saturating radiolabelled 2'-deoxyuridine 5-monophosphate (dUMP). […] Assays of human TS also contained 1-5 μg/mL bovine serum albumin to stabilize the protein. Reactions were initiated by the addition of enzyme and were carried out for 5 minutes at 24° C., and then quenched by the addition of charcoal (15 mg in 0.1 mL H2 O). The quenched samples were centrifuged at 10,000 rpm for 12-15 min at […] to remove unreacted dUMP which had bound to the charcoal, and 0.1 mL of the supernatant was counted by liquid scintillation in the presence of 5 mL ecolume to determine the release of tritium label from the 5-position of the dUMP. […] Experimental results were analyzed by EZ-FIT, a nonlinear regression analysis program (Perrella Scientific, Springfield, Pa.) which was used to fit all data points simultaneously to a mixed noncompetitive inhibition scheme.

[4] = tested on: GC3/M TK- cells; assay: Inhibition of growth of tumor cells, thymidine kinase-deficient human colon adenocarcinoma GC3/M TK- (MTT); type: cell-based; details: Homo sapiens, GC3/MTK-, 120 h; for IC50: 5 days continuous exposure, MTT, read-out: Cell Culture IC50, GC3-M (TK-)
Procedure: (§3) In Vitro Testing to Determine Inhibition of Growth of Tumor Cells
(§4) Growth was measured over 3 days (L1210) or 5 days (CCRF-CEM, GC3 /M TK^-) of continuous exposure to varying concentrations of each test compound, added 4 h. after initial cell plating, by the MTT-tetrazolium reduction assay of T. J. Mosmann [J. Immunol. Meth. […] Water insoluble derivatives were dissolved in DMSO and diluted to a final concentration of 0.5% solvent in cell cultures.

[5] = tested on: CCRF-CEM cells; assay: Inhibition of growth of tumor cells, CCRF-CEM human lymphoblastic leukemia (MTT); type: cell-based; details: Homo sapiens, CCRF-CEM, 120 h, 5 days continuous exposure, MTT; read-out: Cell Culture IC50, CCRF-CEM
Procedure: as §3, §4

[6] = molecular target: human TS (thymidylate synthase) (Homo sapiens, UniProt P04818); assay: Inhibition constants against 5,10-methylenetetrahydrofolate for thymidylate synthase, human enzyme (tritium release); type: biochemical; details: cofactor as variable substrate, pH 7.6, 24° C.
Sequence of human TS (thymidylate synthase) (P04818 2-313 limits assumed): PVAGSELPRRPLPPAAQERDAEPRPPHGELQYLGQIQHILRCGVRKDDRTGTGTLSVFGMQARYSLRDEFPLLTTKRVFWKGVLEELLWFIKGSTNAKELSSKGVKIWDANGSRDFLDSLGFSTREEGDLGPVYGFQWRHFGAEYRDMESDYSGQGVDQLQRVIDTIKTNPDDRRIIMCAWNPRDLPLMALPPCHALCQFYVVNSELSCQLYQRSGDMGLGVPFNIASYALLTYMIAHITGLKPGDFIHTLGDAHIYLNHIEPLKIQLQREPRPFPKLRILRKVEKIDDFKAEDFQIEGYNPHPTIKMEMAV
Procedure: as §1, §2

[7] = tested on: L1210 murine leukemia cells; assay: Inhibition of growth of tumor cells, L1210 murine leukemia (MTT); type: cell-based; details: Mus musculus, L1210, 72 h, 3 days continuous exposure, MTT; read-out: Cell Culture IC50, L1210
Procedure: as §3, §4

Compound: C#CCN(Cc1ccc2nc(N)[nH]c(=O)c2c1)c1ccc(C(=O)N[C@@H](CCC(=O)O)C(=O)O)cc1 [10-propargyl-5,8-dideazafolic acid]
- activity against cancer [1]: activity against ovarian, liver and breast cancer
- toxicities [2]: troublesome hepatic and renal toxicities

Compound: Cc1nc2cccc(Cn3cncc3-c3ccc([N+](=O)[O-])cc3)c2c(=O)[nH]1 [Compound 32A]
- Ki [3]: > 10 µM
- IC50 [4]: > 10 µM
- inhibition at 10 µM ([4]; @ > 10 μM, 5 days): 30%
- IC50 [5]: 6 µM
- Ki ([6]; read-out: Ki Data, human thymidylate synthase): > 10 µM
- IC50 [7]: > 10 µM

Compound: Cc1cc(Sc2c(C)ccc3nc(C)[nH]c(=O)c23)ccn1 [Compound 12A, 3,4-Dihydro-2,6-dimethyl-4-oxo-5-[4-(2-picolinylthio)]-quinazoline]
- Ki [3]: 0.55 ± 0.05 µM
- IC50 [4]: 5 µM
- IC50 [5]: 4.2 µM
- Ki ([6]; Ki Data, human thymidylate synthase): 0.07 ± 0.001 µM
- IC50 [7]: 4.2 µM
